Results taken from the supplement of paper PMC10307832.

How the values were obtained:
Assay in all cases: relative viability (nuclei count vs DMSO), 5 days (fraction); higher = more cells survive
Midostaurin + Lapatinib = compound: CO[C@@H]1[C@H](N(C)C(=O)c2ccccc2)C[C@H]2O[C@]1(C)n1c3ccccc3c3c4c(c5c6ccccc6n2c5c31)C(=O)NC4 [Midostaurin] + CS(=O)(=O)CCNCc1ccc(-c2ccc3ncnc(Nc4ccc(OCc5cccc(F)c5)c(Cl)c4)c3c2)o1 [Lapatinib] (partner 2 µM)
Procedure, shortened: (§1)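 After 5 days of treatment, lung cancer cells in 1536-well plates were fixed and stained in a single step (final 0.05% Triton X-100, 1% formaldehyde, 1 ug/ml Hoechst) and their nuclei counted on 4× images. Treatment had been applied by pin tool the day after seeding as one drug alone or as a fixed anchor-drug dose with five library-drug doses (not always all listed) in √10 steps. Relative viability is the nuclei count of treated wells divided by that of vehicle wells, and values are medians of duplicate plates.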

[1] = compound: COc1cc(-c2nn([C@H]3CC[C@H](N4CCN(C(C)=O)CC4)CC3)c3ncnc(N)c23)ccc1NC(=O)c1cc2ccccc2n1C + CC1(C)CCC(c2ccc(Cl)cc2)=C(CN2CCN(c3ccc(C(=O)NS(=O)(=O)c4ccc(N[C@H](CCN5CCOCC5)CSc5ccccc5)c(S(=O)(=O)C(F)(F)F)c4)cc3)CC2)C1 [Navitoclax] (partner 0.5 µM)
Procedure, shortened: as §1

[2] = compound: COc1cc(-c2nn([C@H]3CC[C@H](N4CCN(C(C)=O)CC4)CC3)c3ncnc(N)c23)ccc1NC(=O)c1cc2ccccc2n1C + CCNC(=O)c1noc(-c2cc(C(C)C)c(O)cc2O)c1-c1ccc(CN2CCOCC2)cc1 [Luminespib] (partner 0.01 µM)
Procedure, shortened: as §1

[3] = compound: COc1cc(-c2nn([C@H]3CC[C@H](N4CCN(C(C)=O)CC4)CC3)c3ncnc(N)c23)ccc1NC(=O)c1cc2ccccc2n1C + Cc1nc(Nc2ncc(C(=O)Nc3c(C)cccc3Cl)s2)cc(N2CCN(CCO)CC2)n1 [Dasatinib] (partner 0.075 µM)
Procedure, shortened: as §1

[4] = compound: COc1cc(-c2nn([C@H]3CC[C@H](N4CCN(C(C)=O)CC4)CC3)c3ncnc(N)c23)ccc1NC(=O)c1cc2ccccc2n1C + NC(=O)Nc1cc(-c2cccc(F)c2)sc1C(=O)N[C@H]1CCCNC1 [AZD7762] (partner 0.2 µM)
Procedure, shortened: as §1

Cell Line	relative viability (Midostaurin + Lapatinib; first compound 0.01 µM)	relative viability (Midostaurin + Lapatinib; first compound 0.03162 µM)	relative viability (Midostaurin + Lapatinib; first compound 0.1 µM)	relative viability (Midostaurin + Lapatinib; first compound 0.3162 µM)	relative viability ([1]; first compound 0.0128 µM)	relative viability ([1]; first compound 0.04048 µM)	relative viability ([1]; first compound 0.128 µM)	relative viability ([1]; first compound 1.28 µM)	relative viability ([2]; first compound 0.0128 µM)	relative viability ([2]; first compound 0.04048 µM)	relative viability ([2]; first compound 0.128 µM)	relative viability ([2]; first compound 1.28 µM)	relative viability ([3]; first compound 0.0128 µM)	relative viability ([3]; first compound 0.04048 µM)	relative viability ([3]; first compound 0.128 µM)	relative viability ([3]; first compound 1.28 µM)	relative viability ([4]; first compound 0.0128 µM)	relative viability ([4]; first compound 0.04048 µM)	relative viability ([4]; first compound 0.128 µM)	relative viability ([4]; first compound 1.28 µM)
201T	1.06	0.982	1.07	1.08	1.27	1.3	1.22	1.03	1.04	1.1	0.929	0.539	0.617	0.511	0.537	0.448	0.707	0.51	0.584	0.465
A-427	0.95	0.993	0.835	1.1	1.06	0.763	1.04	0.795	1.16	0.867	0.895	0.794	0.744	–	0.65	0.856	0.76	0.641	0.782	0.727
ABC-1	1.05	1.29	1	1.17	–	–	–	–	0.546	0.612	–	0.332	0.613	0.505	0.542	0.688	0.658	0.759	0.697	0.728
BEN	0.718	0.719	0.777	0.815	0.062	0.261	0.0628	0.0568	0.156	0.398	0.36	0.259	0.251	0.32	0.351	0.318	0.532	0.729	0.591	0.671
CAL-12T	0.726	0.447	0.603	0.498	1.2	1.41	1.27	1.44	0.281	0.417	0.348	0.267	0.418	0.252	0.487	0.436	0.675	0.7	0.49	0.581
ChaGo-K-1	–	–	–	–	0.958	1.05	0.881	0.986	0.721	0.615	0.616	0.679	0.693	0.62	0.568	0.621	0.829	0.779	0.818	0.72
EKVX	0.214	0.127	0.242	0.212	1.05	1.03	0.957	0.384	0.864	0.988	0.795	0.631	0.859	0.611	0.505	0.385	0.79	0.691	0.685	0.385
EMC-BAC-2	0.869	0.828	0.872	0.885	1.19	1.08	1.15	1.05	1.21	1.18	1.23	1.06	0.309	0.391	0.244	0.481	1.13	1.28	1.09	1.09
EPLC-272H	0.918	0.867	0.75	0.855	1.13	1.05	0.983	0.871	0.331	–	0.257	0.209	0.407	–	0.391	0.347	0.253	0.207	0.215	0.142
H3255	0.35	0.282	0.259	0.22	0.398	0.441	0.466	0.259	0.959	1.06	0.848	0.701	0.345	0.313	0.434	0.307	0.879	0.87	0.894	0.633
HARA	0.641	0.665	0.522	1.01	1.14	1.24	1.14	1	0.784	1.03	0.516	0.296	0.259	0.21	0.269	0.236	0.257	0.432	0.124	0.281
HCC-15	0.85	0.776	0.692	0.921	0.755	0.59	0.672	0.454	0.818	0.302	0.224	0.23	0.638	0.593	0.684	0.731	1.46	1.24	1.21	1.28
HCC-44	1.01	0.985	1.04	1.13	1.13	0.913	1.02	0.934	1.21	1.27	1.04	1.01	–	–	–	–	1.13	1.17	0.981	1.19
HCC-78	0.805	0.697	0.721	0.316	0.947	0.901	0.87	0.621	–	–	–	–	0.375	0.401	0.234	0.24	0.52	0.851	0.52	0.331
HCC-366	1.01	1.04	1.04	1.13	1.09	1	1.05	0.821	–	–	–	–	0.711	0.517	0.667	0.607	0.252	0.221	0.246	0.193
HCC-827	0.198	0.225	0.204	0.225	1.01	1.06	1.1	1.04	0.633	0.66	0.816	0.203	0.311	0.313	0.281	0.275	0.211	0.212	0.199	0.138
